Measurements as given in US4977189A, “Substituted guanidinedicarbonyl derivatives” (American Cyanamid Company, priority 1988, dated 1990).

Key:
[1] = system: Brain-Specific Receptors (3H-benzodiazepine binding); assay: Inhibition of the Binding of 3H-Benzodiazepine to Brain-Specific Receptors of Rats; parameters: species or system rat (male albino, Wistar strain; whole cortex); settings: 3H-diazepam (1.5 nM) or 3H-flunitrazepam (1.0 nM); rat cortex P2-fraction; 30 minutes in ice; test concentration not given
From the text: A test utilized for the determination of anxiolytic activity is the measurement of the ability of test compounds to inhibit the binding of tritiated benzodiazepines to brain-specific recptors of warm-blooded animals. A modification of the method described by R. F. Squires, et al., Nature, 266, No. 21, pg 732 (April, 1977) and H. Mohler, et al., Science, 198, pg 849 (1977) was employed.
Male albino rats (Wistar strain, weighing 150-200 g each) were used. The test compounds were solubilized in either dimethylformamide, acetic acid, ethanol or hydrochloric acid.
Whole cortex of rats was homogenized gently in 20 volumes of ice-cold 0.32M sucrose, centrifuged twice at 1000 g for 10 minutes and then recentrifuged at 30,000 g for 20 minutes to produce a crude P2 -synaptosomal fraction. The P2 -fraction was either: (1) resuspended in twice the original volume in hypotonic 50 mM Tris.HCl (pH 7.4), or (2) resuspended in one-half the original volume in hypotonic 10 mM Tris.HCl (pH 7.4) and frozen (-20° C.) until time of use. Frozen P2 preparations were thawed and resuspended in four times the original homogenizing volume at time of assay.
The binding assay consisted of 300 μl of the P2 -fraction suspension (0.2-0.4 mg protein), 100 μl of test drug and 100 μl of ^3 H-diazepam (1.5 nM, final concentration) or ^3 H-flunitrazepam (1.0 nM, final concentration) which was added to 1.5 ml of 50 mM Tris.HCl (pH 7.4). Non-specific binding controls and total binding controls d 100 μl of diazepam (3 μM final concentration) and 100 μl of deionized water, respectively, in place of the test compound. Incubation for 30 minutes proceeded in ice and was terminated by filtration, under vacuum, through glass fiber filters. The filters were washed twice with 5 ml of ice-cold 50 mM Tris.HCl (pH 7.4) and placed in scintillation vials. After drying at 50°-60° C. for 30 minutes, 10 ml of diluent was added and the radioactivity determined in a scintillation counter.
Inhibition of binding was calculated by the difference between total binding and binding in the presence of test compound, divided by the total binding, X 100.

Royal Hart mice = assay: Hypoxic Survival Test; type: in vivo, mouse (Royal Hart); settings: 10% oxygen; for responders at 50 mg/kg / responders at 100 mg/kg / responders at 10 mg/kg / responders at 25 mg/kg / responders at 200 mg/kg: Mus musculus, ip, 5 min, 30 minutes prior, survival after 5 minutes, read-out: % Survivors; for responders at 50 mg/kg: 50 mg/kg intraperitoneally; for responders at 100 mg/kg: 100 mg/kg intraperitoneally; for responders at 10 mg/kg: 10 mg/kg intraperitoneally; for responders at 25 mg/kg: 25 mg/kg intraperitoneally; for responders at 200 mg/kg: 200 mg/kg intraperitoneally
Procedure: A useful in vivo test that measures how effectively central nervous system-acting drugs enhance survival in a hypoxic environment, presumably by improving the ratio of energy supply to demand is known as the Hypoxic Survival Test. […] Drugs are tested by intraperitoneally injecting groups of mice 30 minutes prior to placing them in a hypoxic mixture and measuring survival. The rationale of this test is that drugs which enhance survival under hypoxic conditions without concomitant, depression or sedative side effects, may do so by enhancing energy metabolism, or by preserving normal brain function under conditions of reduced energy metabolism. Given the dependence of the brain on a constant supply of energy, drugs which have this property may have many far-reaching therapeutic indications, including recovery from stroke and closed head injury, as well as reducing the deleterious effects of the aging central nervous system.
Groups of 20 Royal Hart mice (6 weeks of age) are injected intraperitoneally with test compound (1-200 mg/kg) 30 minutes prior to placing them in a hypoxic mixture (10% oxygen in 90% […]) and measuring survival after 5 minutes.
A separate group of 20 mice is injected intraperitoneally with saline solution (0.01 cc/g of body weight) and processed as described above.
Still another group of 20 mice is injected intraperitoneally with 0.125 mg/kg of physostigmine and processed as described above.

% Inhibition [1] [%] | Structure (SMILES) | responders at 100 mg/kg (Royal Hart mice) [%] | other results
85 | Cc1ccc(C(=O)NC(=NC(=O)c2cccc(C)c2)Nc2ccc(C(N)=O)cc2)cc1 [N-[[[4-(Aminocarbonyl)phenyl]amino][(4-methylbenzoyl)amino]methylene]-3-methylbenzamide] | – | –
17 | COc1ccc(C(=O)N=C(NC(=O)c2ccc(OC)cc2)Nc2ccc(C(N)=O)cc2)cc1 [N,N'-[[4-(Aminocarbonyl)phenyl]carbonimidoyl]bis[4-methoxybenzamide]] | – | –
– | Cc1cccc(C(=O)N=C(NC(=O)c2cccc(C)c2)Nc2ccccc2C(N)=O)c1 [N,N'-[[2-(Aminocarbonyl)phenyl]carbonimidoyl]bis[3-methylbenzamide]] | 48 | responders at 50 mg/kg (Royal Hart mice): 40%
12 | COc1ccc(C(=O)NC(=NC(=O)c2ccc(C)cc2)Nc2cccc(C(N)=O)c2)cc1 [N-[[[3-(Aminocarbonyl)phenyl]amino][(4-methoxybenzoyl)amino]methylene]-4-methylbenzamide] | – | –
15 | Cc1cccc(C(=O)N=C(NC(=O)c2ccccc2)Nc2cccc(C(N)=O)c2)c1 [N-[[[3-(Aminocarbonyl)phenyl]amino](benzoylamino)methylene]-3-methylbenzamide] | – | –
33 | Cc1cccc(C(=O)N=C(NC(=O)c2ccccc2)Nc2ccc(C(N)=O)cc2)c1 [N-[[[4-(Aminocarbonyl)phenyl]amino](benzoylamino)methylene]-3-methylbenzamide] | – | –
– | COc1cc(C(=O)N=C(NC(=O)c2ccccc2)Nc2ccc(C(N)=O)cc2)cc(OC)c1OC [N-[[[4-(Aminocarbonyl)phenyl]amino](benzoylamino)methylene]-3,4,5-trimethoxybenzamide] | – | responders at 10 mg/kg (Royal Hart mice): 50%; responders at 25 mg/kg (Royal Hart mice): 50%
– | NC(=O)c1ccc(NC(=NC(=O)c2cccs2)NC(=O)c2ccccc2)cc1 [N-[[[4-(Aminocarbonyl)phenyl]amino](benzoylamino)methylene]-2-thiophenecarboxamide] | – | responders at 10 mg/kg (Royal Hart mice): 50%; responders at 50 mg/kg (Royal Hart mice): 50%
10 | COc1ccc(C(=O)NC(=NC(=O)c2ccc(C)cc2)Nc2ccccc2C(N)=O)cc1 [N-[[[2-(Aminocarbonyl)phenyl]amino][(4-methoxybenzoyl)amino]methylene]-4-methylbenzamide] | – | –
17 | CNC(=O)c1ccc(NC(=NC(=O)c2cccc(C)c2)NC(=O)c2cccc(C)c2)cc1 [N,N'[[4-[(Methylamino)carbonyl]phenyl]carbonimidoyl]bis[3-methylbenzamide]] | – | –
16 | CCCCCCCCNC(=O)c1ccc(NC(=NC(=O)c2cccc(C)c2)NC(=O)c2cccc(C)c2)cc1 [N,N'-[[4-(Octylamino)carbonyl]phenyl]carbonimidoyl]bis[3-methylbenzamide]] | – | –
29 | Cc1cccc(C(=O)NC(=Nc2ccc(C(=O)N(C)C)cc2)NC(=O)c2cccc(C)c2)c1 [4-[[Bis[(3-methylbenzoyl)amino]methylene]amino]-N,N-dimethylbenzamide] | – | –
– | CNC(=O)Oc1ccc2c(c1)[C@]1(C)CCN(C)[C@@H]1N2C [physostigmine, reference compound] | – | physostigmine treated mice that survive (Royal Hart mice; 0.125 mg/kg intraperitoneally, after 5 minutes, saline control mice 5-20%): 60-80%
14 | CN(C)C(=O)c1ccc(NC(=NC(=O)c2ccccc2)NC(=O)c2ccccc2)cc1 [4-[[(Benzoylamino)(benzoylimino)methyl]amino]-N,N-dimethylbenzamide] | – | –
– | COc1ccc(C(=O)NC(=NC(=O)c2cccc(C)c2)Nc2ccc(C(N)=O)cc2)cc1 [N-[[[4-(Aminocarbonyl)phenyl]amino][(4-methoxybenzoyl)amino]methylene]-3-methylbenzamide] | 50 | responders at 10 mg/kg (Royal Hart mice): 50%; responders at 50 mg/kg (Royal Hart mice): 45%; responders at 200 mg/kg (Royal Hart mice): 45%
17 | Cc1cccc(C(=O)N=C(NC(=O)c2cccc(C)c2)Nc2cccc(C(N)=O)c2)c1 [N,N'-[[3-(Aminocarbonyl)phenyl]carbonimidoyl]bis[3-methylbenzamide]] | – | –
– | COc1ccc(C(=O)N=C(NC(=O)c2ccc(F)cc2)Nc2ccc(C(N)=O)cc2)cc1 [N-[[[4-(Aminocarbonyl)phenyl]amino][(4-fluorobenzoyl)amino]methylene]-4-methoxybenzamide] | 42 | responders at 25 mg/kg (Royal Hart mice): 45%; responders at 50 mg/kg (Royal Hart mice): 60%
– | CCN(CC)CCNC(=NC(=O)c1ccc(C(F)(F)F)cc1)NC(=O)c1ccc(C(F)(F)F)cc1 [N,N'-[[2-(Diethylaminoethyl]carbonimidoyl]bis[4-(trifluoromethyl)benzamide] | 65 | responders at 10 mg/kg (Royal Hart mice): 45%; responders at 50 mg/kg (Royal Hart mice): 70%; responders at 200 mg/kg (Royal Hart mice): 85%
– | NC(=O)c1ccc(NC(=NC(=O)c2ccc(Br)cc2)NC(=O)c2ccccc2)cc1 [N-[[[4-(Aminocarbonyl)phenyl]amino](benzoylamino)methylene]-4-bromobenzamide] | 43 | responders at 10 mg/kg (Royal Hart mice): 42%; responders at 25 mg/kg (Royal Hart mice): 60%
– | NC(=O)c1ccc(NC(=NC(=O)c2ccccc2)NC(=O)C23CC4CC(CC(C4)C2)C3)cc1 [N-[[[4-(Aminocarbonyl)phenyl]amino](benzoylamino)methylene]tricyclo[3.3.1.1^3.7]decane-1-carboxamide] | – | responders at 50 mg/kg (Royal Hart mice): 42%
– | NC(=O)c1ccc(NC(=NC(=O)c2cccc(Br)c2)NC(=O)c2ccccc2)cc1 [N-[[[4-(Aminocarbonyl)phenyl]amino](benzoylamino)methylene]-3-bromobenzamide] | – | responders at 10 mg/kg (Royal Hart mice): 50%
22 | NC(=O)c1ccc(NC(=NC(=O)Cc2ccccc2)NC(=O)c2ccccc2)cc1 [N-[[[4-(Aminocarbonyl)phenyl]amino](benzoylamino)methylene]benzeneacetamide] | – | –
– | NC(=O)c1ccc(NC(=NC(=O)c2ccccc2)NC(=O)C=Cc2ccccc2)cc1 [N-[[[4-(Aminocarbonyl)phenyl]amino][(1-oxo-3-phenyl-2-propenyl)amino]methylene]benzamide] | 40 | –
– | COc1ccc(C(=O)NC(=NC(=O)c2ccc(C(F)(F)F)cc2)Nc2ccc(C(N)=O)cc2)cc1 [N-[[[4-(Aminocarbonyl)phenyl]amino][(4-methoxybenzoyl)amino]methylene]-4-(trifluoromethyl)benzamide] | 47 | responders at 50 mg/kg (Royal Hart mice): 55%
– | COc1ccc(C(=O)N=C(NC(=O)c2ccc(C)cc2)Nc2ccc(C(N)=O)cc2)cc1 [N-[[[4-(Aminocarbonyl)phenyl]amino][4-methylbenzoyl)amino]methylene]-4-methoxybenzamide] | 43 | –
– | NC(=O)c1ccc(NC(=NC(=O)c2ccc(F)cc2)NC(=O)c2ccc(Br)cc2)cc1 [N-[[[4-(Aminocarbonyl)phenyl]amino][(4-bromobenzoyl)amino]methylene]-4-fluorobenzamide] | 44 | responders at 25 mg/kg (Royal Hart mice): 40%
– | NC(=O)c1ccc(NC(=NC(=O)c2ccc(C(F)(F)F)cc2)NC(=O)c2ccccc2)cc1 [N-[[[4-(Aminocarbonyl)phenyl]amino][benzoylamino]methylene]-4-(trifluoromethyl)benzamide] | – | responders at 50 mg/kg (Royal Hart mice): 45%
– | NS(=O)(=O)c1ccc(CNC(=NC(=O)c2ccccc2)NC(=O)c2ccccc2)cc1 [N,N'-[[[4-(Aminosulfonyl)phenyl]methyl]carbonimidoyl]bisbenzamide] | 35 | responders at 10 mg/kg (Royal Hart mice): 50%
